Values after ≈ are worked out from the molar mass of the structure shown.
Legend:
[1] = test system: carbapenem sensitive Pseudomonas aeruginosa; assay: MIC by broth micro-dilution (CLSI), carbapenem sensitive P. aeruginosa; format: cell-based; details: Pseudomonas aeruginosa, ATCC27853, Meropenem susceptible P. aeruginosa ATCC27853; read-out: MIC
[2] = test system: carbapenemase producing K. pneumoniae; assay: MIC by broth micro-dilution (CLSI), carbapenemase producing K. pneumoniae; format: cell-based, Klebsiella pneumoniae; details: Klebsiella pneumoniae, ATCCBAA1705, KPC-2 K. pneumoniae ATCC BAA-1705; read-out: MIC
[3] = test system: carbapenem sensitive Escherichia coli; assay: MIC by broth micro-dilution (CLSI), carbapenem sensitive E. coli; format: cell-based; details: Escherichia coli, ATCC25922, ESBL −ve E. coli ATCC25922; read-out: MIC
[4] = test system: extended spectrum β lactamase (ESBL) SHV18 producing Klebsiella pneumoniae; assay: MIC by broth micro-dilution (CLSI), ESBL SHV18 producing K. pneumoniae; format: cell-based; details: Klebsiella pneumoniae, ATCC700603, 22 h, ESBL +ve (SHV-18) K. pneumoniae ATCC700603; read-out: MIC
[5] = test system: methicillin-sensitive Staphylococcus aureus; assay: MIC by broth micro-dilution (CLSI), methicillin-sensitive S. aureus; format: cell-based; details: Staphylococcus aureus, ATCC 29213 / MSSA, MSSA S. aureus ATCC29213; read-out: MIC

SMILES | MIC [1] | MIC [2] | MIC [3] | MIC [4] | MIC [5]
C[C@@H](NC(=O)C(F)F)[C@H]1C(=O)N2C(C(=O)O)=C(S[C@@H]3CN[C@H](C(=O)N4CC[C@H](NC5CC5)C4)C3)[C@H](C)[C@H]12 [Example 170] | 32 µg/mL (≈ 59.1 µM) | 8 µg/mL (≈ 14.8 µM) | 1 µg/mL (≈ 1.85 µM) | 4 µg/mL (≈ 7.39 µM) | 2 µg/mL (≈ 3.69 µM)
C[C@@H](NC(=O)CN(C)C(=N)N)[C@H]1C(=O)N2C(C(=O)O)=C(S[C@@H]3CN[C@H](C(=O)N4CC[C@@H](N)C4)C3)[C@H](C)[C@H]12 [Example 230] | 8 µg/mL (≈ 14.9 µM) | 4 µg/mL (≈ 7.45 µM) | 1 µg/mL (≈ 1.86 µM) | 8 µg/mL (≈ 14.9 µM) | 32 µg/mL (≈ 59.6 µM)
C[C@@H](NC(=O)C(F)F)[C@H]1C(=O)N2C(C(=O)O)=C(S[C@@H]3CN[C@H](C(=O)N4CC[C@H](NC(=O)N(C)C)C4)C3)[C@H](C)[C@H]12 [Example 118] | 64 µg/mL (≈ 112 µM) | 8 µg/mL (≈ 14 µM) | 0.5 µg/mL (≈ 0.873 µM) | 2 µg/mL (≈ 3.49 µM) | 4 µg/mL (≈ 6.99 µM)
CNCC(=O)N[C@H](C)[C@H]1C(=O)N2C(C(=O)O)=C(S[C@@H]3CN[C@H](C(=O)N4CCC(NC(=O)CN)CC4)C3)[C@H](C)[C@H]12 [Example 193] | 8 µg/mL (≈ 14.1 µM) | 4 µg/mL (≈ 7.07 µM) | 4 µg/mL (≈ 7.07 µM) | 8 µg/mL (≈ 14.1 µM) | 64 µg/mL (≈ 113 µM)
C[C@@H](NC(=O)C(F)F)[C@H]1C(=O)N2C(C(=O)O)=C(S[C@@H]3CN[C@H](C(=O)N(C)CCC(=O)N4CCCNCC4)C3)[C@H](C)[C@H]12 [Example 174] | 32 µg/mL (≈ 53.3 µM) | 8 µg/mL (≈ 13.3 µM) | 2 µg/mL (≈ 3.33 µM) | 16 µg/mL (≈ 26.6 µM) | 4 µg/mL (≈ 6.66 µM)
C[C@H]([C@H]1C(=O)N2C(C(=O)O)=C(SC3CN[C@H](C(=O)N4CCNCC4)C3)[C@H](C)[C@H]12)n1cc(CF)nn1 (stereo partly shown) [Example 207] | > 128 µg/mL | 8 µg/mL (≈ 15.8 µM) | 2 µg/mL (≈ 3.94 µM) | 8 µg/mL (≈ 15.8 µM) | 2 µg/mL (≈ 3.94 µM)
CNCC(=O)N[C@H](C)[C@H]1C(=O)N2C(C(=O)O)=C(S[C@@H]3CN[C@H](C(=O)N4CC[C@@H](F)C4)C3)[C@H](C)[C@H]12 [Example 215] | > 128 µg/mL | 8 µg/mL (≈ 16.1 µM) | 2 µg/mL (≈ 4.02 µM) | 32 µg/mL (≈ 64.3 µM) | 8 µg/mL (≈ 16.1 µM)
C[C@@H](NC(=O)C(F)F)[C@H]1C(=O)N2C(C(=O)O)=C(S[C@@H]3CN[C@H](C(=O)N4CCC(F)(F)CC4)C3)[C@H](C)[C@H]12 [Example 76] | > 128 µg/mL | 8 µg/mL (≈ 14.9 µM) | 1 µg/mL (≈ 1.86 µM) | 8 µg/mL (≈ 14.9 µM) | 2 µg/mL (≈ 3.73 µM)
CNCC(=O)N[C@H](C)[C@H]1C(=O)N2C(C(=O)O)=C(S[C@@H]3CN[C@H](C(=O)N4CC[C@H](F)C4)C3)[C@H](C)[C@H]12 [Example 214] | > 128 µg/mL | 16 µg/mL (≈ 32.2 µM) | 4 µg/mL (≈ 8.04 µM) | 32 µg/mL (≈ 64.3 µM) | 32 µg/mL (≈ 64.3 µM)
C[C@@H](NC(=O)C(F)F)[C@H]1C(=O)N2C(C(=O)O)=C(S[C@@H]3CN[C@H](C(=O)N4C[C@@H](N)C[C@H]4C(=O)N(C)C)C3)[C@H](C)[C@H]12 [Example 142] | 16 to 32 µg/mL (≈ 27.9 to 55.9 µM) | 8 µg/mL (≈ 14 µM) | 1 µg/mL (≈ 1.75 µM) | 8 µg/mL (≈ 14 µM) | 4 to 8 µg/mL (≈ 6.99 to 14 µM)
CNCC(=O)N1CCN(C(=O)[C@@H]2C[C@H](SC3=C(C(=O)O)N4C(=O)[C@H]([C@@H](C)NC(=O)C(F)F)[C@H]4[C@H]3C)CN2)CC1 [Example 158] | 8 µg/mL (≈ 14 µM) | 4 µg/mL (≈ 6.99 µM) | 1 µg/mL (≈ 1.75 µM) | 4 µg/mL (≈ 6.99 µM) | 2 µg/mL (≈ 3.49 µM)
C[C@@H](NC(=O)C(F)F)[C@H]1C(=O)N2C(C(=O)O)=C(S[C@@H]3CN[C@H](C(=O)N4CCC(N)CC4)C3)[C@H](C)[C@H]12 [Example 132] | 4 µg/mL (≈ 7.76 µM) | 4 µg/mL (≈ 7.76 µM) | 1 µg/mL (≈ 1.94 µM) | 4 µg/mL (≈ 7.76 µM) | 2 µg/mL (≈ 3.88 µM)
COCc1cn([C@H](C)[C@H]2C(=O)N3C(C(=O)O)=C(S[C@@H]4CN[C@H](C(=O)N(C)C)C4)[C@H](C)[C@H]23)nn1 [Example 233] | > 128 µg/mL | 4 µg/mL (≈ 8.36 µM) | 1 µg/mL (≈ 2.09 µM) | 4 µg/mL (≈ 8.36 µM) | 4 µg/mL (≈ 8.36 µM)
C[C@@H](NC(=O)C(F)F)[C@H]1C(=O)N2C(C(=O)O)=C(S[C@@H]3CN[C@H](C(=O)N4C[C@H](O)[C@@H](O)C4)C3)[C@H](C)[C@H]12 [Example 198] | 32 µg/mL (≈ 61.7 µM) | 4 µg/mL (≈ 7.71 µM) | 0.25 µg/mL (≈ 0.482 µM) | 1 µg/mL (≈ 1.93 µM) | 2 µg/mL (≈ 3.86 µM)
CCCCS(=O)(=O)N[C@H](C)[C@H]1C(=O)N2C(C(=O)O)=C(S[C@@H]3CN[C@H](C(=O)N(C)C)C3)[C@H](C)[C@H]12 [Example 18] | 32 µg/mL (≈ 63.7 µM) | 8 µg/mL (≈ 15.9 µM) | 4 µg/mL (≈ 7.96 µM) | 64 µg/mL (≈ 127 µM) | 8 µg/mL (≈ 15.9 µM)
C[C@@H](NC(=O)C(F)F)[C@H]1C(=O)N2C(C(=O)O)=C(S[C@@H]3CNC(C[N+]4(C)CCCC4)C3)[C@H](C)[C@H]12 (stereo partly shown) [Example 80] | > 128 µg/mL | 64 µg/mL | 4 µg/mL | 32 µg/mL | 4 µg/mL
CONC(=O)CCNC(=O)[C@@H]1C[C@H](SC2=C(C(=O)O)N3C(=O)[C@H]([C@@H](C)NC(=O)C(F)F)[C@H]3[C@H]2C)CN1 [Example 115] | > 128 µg/mL | 8 µg/mL (≈ 15 µM) | 0.5 µg/mL (≈ 0.937 µM) | 2 µg/mL (≈ 3.75 µM) | 8 µg/mL (≈ 15 µM)
C[C@@H](NS(=O)(=O)C(F)(F)F)[C@H]1C(=O)N2C(C(=O)O)=C(S[C@@H]3CN[C@H](C(=O)N(C)C)C3)[C@H](C)[C@H]12 [Example 13] | 64 µg/mL (≈ 124 µM) | 4 µg/mL (≈ 7.77 µM) | 1 µg/mL (≈ 1.94 µM) | 8 µg/mL (≈ 15.5 µM) | 4 µg/mL (≈ 7.77 µM)

Continued, values first:

MIC [1] | MIC [2] | MIC [3] | MIC [4] | MIC [5] | SMILES
128 µg/mL (≈ 265 µM) | 8 µg/mL (≈ 16.6 µM) | 1 µg/mL (≈ 2.07 µM) | 4 to 8 µg/mL (≈ 8.29 to 16.6 µM) | 4 µg/mL (≈ 8.29 µM) | CC(=O)OCC(=O)N[C@H](C)[C@H]1C(=O)N2C(C(=O)O)=C(S[C@@H]3CN[C@H](C(=O)N(C)C)C3)[C@H](C)[C@H]12 [Example 26]
> 128 µg/mL | > 128 µg/mL | 8 µg/mL (≈ 15.8 µM) | > 128 µg/mL | 8 µg/mL (≈ 15.8 µM) | C[C@@H](NC(=O)Cc1cccs1)[C@H]1C(=O)N2C(C(=O)O)=C(S[C@@H]3CN[C@H](C(=O)N(C)C)C3)[C@H](C)[C@H]12 [Example 5]
> 128 µg/mL | 16 µg/mL (≈ 32.3 µM) | 4 µg/mL (≈ 8.07 µM) | 32 µg/mL (≈ 64.6 µM) | 16 µg/mL (≈ 32.3 µM) | CC(C)C[C@@H](N)C(=O)N[C@H](C)[C@H]1C(=O)N2C(C(=O)O)=C(S[C@@H]3CN[C@H](C(=O)N(C)C)C3)[C@H](C)[C@H]12 [Example 113]
32 µg/mL (≈ 68.4 µM) | 4 µg/mL (≈ 8.55 µM) | 1 µg/mL (≈ 2.14 µM) | 8 µg/mL (≈ 17.1 µM) | 16 µg/mL (≈ 34.2 µM) | C[C@@H](NC(=O)CN(C)C)[C@H]1C(=O)N2C(C(=O)O)=C(S[C@@H]3CN[C@H](C(=O)N(C)C)C3)[C@H](C)[C@H]12 [Example 100]
> 128 µg/mL | 16 µg/mL (≈ 33.7 µM) | 1 µg/mL (≈ 2.11 µM) | 16 µg/mL (≈ 33.7 µM) | 1 µg/mL (≈ 2.11 µM) | C[C@@H](NC(=O)C(C)(F)F)[C@H]1C(=O)N2C(C(=O)O)=C(S[C@@H]3CN[C@H](C(=O)N(C)C)C3)[C@H](C)[C@H]12 [Example 61]
4 to 8 µg/mL (≈ 8.29 to 16.6 µM) | 4 to 8 µg/mL (≈ 8.29 to 16.6 µM) | 2 µg/mL (≈ 4.14 µM) | 2 µg/mL (≈ 4.14 µM) | 8 µg/mL (≈ 16.6 µM) | CCOC(=O)C(=O)N[C@H](C)[C@H]1C(=O)N2C(C(=O)O)=C(S[C@@H]3CN[C@H](C(=O)N(C)C)C3)[C@H](C)[C@H]12 [Example 28]
32 µg/mL (≈ 69.5 µM) | 1 µg/mL (≈ 2.17 µM) | 0.5 µg/mL (≈ 1.09 µM) | 1 µg/mL (≈ 2.17 µM) | 1 µg/mL (≈ 2.17 µM) | C[C@@H](NC(=O)C(F)F)[C@H]1C(=O)N2C(C(=O)O)=C(S[C@@H]3CN[C@H](C(=O)N(C)C)C3)[C@H](C)[C@H]12 [Example 32]
128 µg/mL | 16 µg/mL | 1 µg/mL | 4 µg/mL | 4 µg/mL | CC(F)C(=O)N[C@H](C)[C@H]1C(=O)N2C(C(=O)O)=C(S[C@@H]3CN[C@H](C(=O)N(C)C)C3)[C@H](C)[C@H]12 (mixture of isomers) [Example 84]

Source: patent US11180504B2 (ORCHID PHARMA LTD., priority 2016, dated 2021)
